Source: ChEMBL document CHEMBL1137619, “Synthesis, structure-activity relationship and in vivo antiinflammatory efficacy of substituted dipiperidines as CCR2 antagonists” (J Med Chem, 2007)

Tests used:
Assay type in all cases: ADME, organism-based
Details in all cases: in vivo
[1] = Bioavailability in rat at 10 mg/kg, ip
[2] = Bioavailability in rat at 10 mg/kg, po
[3] = Half life in rat at 10 mg/kg, po; set-up: dose 10 mg/kg, route oral

bioavailability [1]: 100% | bioavailability [2]: 15% | half-life [3]: 7 h
SMILES: O=C(O)[C@H](C1CCN(C(=O)/C=C/c2cc(F)c(F)c(F)c2)CC1)N1CCC(c2c[nH]c3ccccc23)CC1
